Source: the NIST ThermoML archive (doi:10.1021/je100747y)

Tests used:
[1] = 298.15 K; 101.33 kPa; Liquid
[2] = refractive index (Na D-line) (dimensionless); conditions: 298.15 K; 101.33 kPa; Liquid; Standard Abbe refractometry
[3] = xn = mol fraction of the nth substance listed; conditions: 298.15 K, 101 kPa, Liquid, Vibrating tube method
[4] = refractive index (Na D-line) (dimensionless); xn = mol fraction of the nth substance listed; conditions: 298.15 K, 101 kPa, Liquid, Standard Abbe refractometry

CC(=O)CC(C)=O [2,4-pentanedione]
Conditions | mass density [kg/m3] | refractive index
[1] | 971 | –
[2] | – | 1.4509

CC(=O)CC(C)=O [2,4-pentanedione] + ClC(Cl)Cl
Conditions | mass density, [3] [kg/m3] | refractive index, [4]
x2 = 0.0498 | 988.5 | 1.4498
x2 = 0.0996 | 1009.2 | 1.4497
x2 = 0.2007 | 1052.6 | 1.4496
x2 = 0.3002 | 1097.2 | 1.4494
x2 = 0.4002 | 1144.3 | 1.4492
x2 = 0.4999 | 1193.6 | 1.4487
x2 = 0.5997 | 1245.4 | 1.4482
x2 = 0.7007 | 1300.4 | 1.4475
x2 = 0.7997 | 1356.8 | 1.4465
x2 = 0.899 | 1415.6 | 1.445
x2 = 0.9494 | 1446.3 | 1.4442

ClC(Cl)Cl [trichloromethane]
Conditions | mass density [kg/m3] | refractive index
[1] | 1478 | –
[2] | – | 1.443
